Reference: patent US5840752A, “Reduction of hair growth” (priority 1996, dated 1998)

Experiments:
HMG CoA reductase = test: HMGCoA reductase assay in extracts of hair follicles from hamster flank organ; type: biochemical; conditions: tested at 14 μM, 1 hour incubation
[1] = tested on: hair growth of hamster flank organs; test: Golden Syrian hamster assay (flank organ hair mass); type: in vivo; conditions: topical, thirteen applications; for Hair Mass (mg) ± SEM, Treated: 10 μl once a day; for % Reduction (of hair growth): vs vehicle treated side
Excerpt: Male intact Golden Syrian hamsters are considered acceptable models for human beard hair growth in that they display oval shaped flank organs, one on each side, each about 8 mm. in major diameter, which grow thick black and coarse hair similar to human beard hair. These organs produce hair in response to androgens in the hamster. To evaluate the effectiveness of a composition including an inhibitor of a cholesterol synthetic pathway enzyme, the flank organs of each of a group of hamsters are depilated by applying a thioglycolate based chemical depilatory (Surgex) and/or shaved. To one organ of each animal 10 μl. of vehicle alone once a day is applied, while to the other organ of each animal an equal amount of vehicle containing an inhibitor of a cholesterol synthetic pathway enzyme is applied. After thirteen applications (one application per day for five days a week), the flank organs are shaved and the amount of recovered hair (hair mass) from each is weighed. Percent-reduction of hair growth is calculated by subtracting the hair mass (mg) value of the test compound treated side from the hair mass value of the vehicle treated side; the delta value obtained is then divided by the hair mass value of the vehicle treated side, and the resultant number is multiplied by 100.
The above-described assay will be referred to herein as the "Golden Syrian hamster" assay.

[2] = dose 10%, Vehicle A (40% acetone, 40% dipropylene glycol, 20% dimethyl sulfoxide)
[3] = dose 10%, Vehicle C (85% dimethyl sulfoxide, 10% benzyl alcohol, 5% NMP)
[4] = dose 5%, Vehicle C (85% dimethyl sulfoxide, 10% benzyl alcohol, 5% NMP)
[5] = dose 5%, Vehicle B (100% dimethyl sulfoxide)

CCC(C)(C)C(=O)O[C@H]1C[C@@H](C)C=C2C=C[C@H](C)[C@H](CC[C@@H]3C[C@@H](O)CC(=O)O3)[C@H]21 (relative stereo) [Simivistatin, 1S-[1α,3α,7β,8β(2S*,4S*),8aβ]]-1,2,3,7,8,8a-hexahydro-3,7-dimethyl-8-[2-tetrahydro-4-hydroxy-6-oxo-2H-pyran-2-yl)ethyl]-1-napthalenyl-2,2-dimethyl-butanoic acid]
inhibition of HMG CoA reductase activity (HMG CoA reductase): 100% | Hair Mass (mg) ± SEM, Treated [1, 2]: 0.60 ± 0.11 mg | % Reduction (of hair growth) [1, 2]: 61 ± 7%

CC(C)CCC[C@@H](C)[C@H]1CC[C@H]2[C@@H]3C(=O)C=C4C[C@@H](O)CC[C@]4(C)[C@H]3CC[C@]12C [7-Ketocholesterol, 5-cholesten-3β-Ol-7-one]
Hair Mass (mg) ± SEM, Treated [1, 3]: 1.01 ± 0.1 mg | % Reduction (of hair growth) [1, 3]: 54 ± 7%

C[C@H](CCCC(C)(C)O)[C@H]1CC[C@H]2[C@@H]3CC=C4C[C@@H](O)CC[C@]4(C)[C@H]3CC[C@]12C [25-Hydroxycholesterol, 25-hydroxycholesterol]
Hair Mass (mg) ± SEM, Treated [1, 4]: 1.04 ± 0.10 mg | % Reduction (of hair growth) [1, 4]: 17 ± 9%

CC[C@H](C)C(=O)O[C@H]1C[C@@H](C)C=C2C=C[C@H](C)[C@H](CC[C@@H]3C[C@@H](O)CC(=O)O3)[C@H]21 [Lovastatin, 1S-[1S-[1α(R*),3α,7β,8β(2S*,4S*),8αβ]]-1,2,3,7,8,8a-hexahydro-3,7-dimethyl-8-[2-(tetrahydro-4-hydroxy-6-oxo-2H-pyran-2-yl)ethyl]-1-naphthalenyl 2-methylbutanoate]
Hair Mass (mg) ± SEM, Treated [1, 2]: 0.81 ± 0.13 mg | % Reduction (of hair growth) [1, 2]: 63±4%

CC[C@H](C)C(=O)O[C@H]1CCC=C2C=C[C@H](C)[C@H](CC[C@@H]3C[C@@H](O)CC(=O)O3)[C@H]21 [Mevastatin, mevastatin]
Hair Mass (mg) ± SEM, Treated [1, 5]: 1.09 ± 0.07 mg | % Reduction (of hair growth) [1, 5]: 19 ± 7%
